Experimental data: patent US20080161288A1, “COMPOUNDS” (Pfizer Inc., priority 2006, published 2008)

What was measured:
[1] = target: T1, bovine beta-2 adrenoceptor (Bos taurus, UniProt Q28044); assay: cAMP assay in CHO cells transfected with the bovine beta-2 adrenoceptor; format: cell-based; conditions: cAMP (DiscoveRx Hit Hunter cAMP II) in CHO cells transfected with bovine beta-2 adrenoceptor, 30 minutes with compound, 0.5 mM IBMX
T1 construct: expressed in transfected cells; host or cells: CHO cells
How it was run: (§1)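 Transfected CHO cells were preincubated 30 min with 0.5 mM IBMX in PBS. Compound (5×10^−12 to 10^−5 M) was then applied for 30 min at 37 °C, 5% CO2, followed by cAMP measurement with an enzyme-fragment complementation kit. Duplicates, EC50 from curve fitting.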

[2] = target: T2, porcine beta-2 adrenoceptor (Sus scrofa, UniProt Q28997); assay: cAMP assay in CHO cells transfected with the porcine beta-2 adrenoceptor; format: cell-based; conditions: cAMP (DiscoveRx Hit Hunter cAMP II) in CHO cells transfected with porcine beta-2 adrenoceptor, 30 minutes with compound, 0.5 mM IBMX
T2 construct: expressed in transfected cells; host or cells: CHO cells
How it was run: as §1

T2 sequence (Q28997 whole entry): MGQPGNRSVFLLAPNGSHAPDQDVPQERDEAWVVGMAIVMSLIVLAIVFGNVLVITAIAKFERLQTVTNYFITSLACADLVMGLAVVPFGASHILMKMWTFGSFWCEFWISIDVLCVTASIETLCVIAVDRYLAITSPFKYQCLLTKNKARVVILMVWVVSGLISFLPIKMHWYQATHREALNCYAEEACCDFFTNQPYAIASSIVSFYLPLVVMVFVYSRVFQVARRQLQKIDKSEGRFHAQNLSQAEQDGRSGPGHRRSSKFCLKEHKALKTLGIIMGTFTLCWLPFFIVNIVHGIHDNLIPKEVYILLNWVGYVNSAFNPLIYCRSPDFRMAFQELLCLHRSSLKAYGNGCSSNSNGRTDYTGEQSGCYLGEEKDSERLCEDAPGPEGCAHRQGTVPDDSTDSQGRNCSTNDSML
T1 sequence (Q28044 whole entry): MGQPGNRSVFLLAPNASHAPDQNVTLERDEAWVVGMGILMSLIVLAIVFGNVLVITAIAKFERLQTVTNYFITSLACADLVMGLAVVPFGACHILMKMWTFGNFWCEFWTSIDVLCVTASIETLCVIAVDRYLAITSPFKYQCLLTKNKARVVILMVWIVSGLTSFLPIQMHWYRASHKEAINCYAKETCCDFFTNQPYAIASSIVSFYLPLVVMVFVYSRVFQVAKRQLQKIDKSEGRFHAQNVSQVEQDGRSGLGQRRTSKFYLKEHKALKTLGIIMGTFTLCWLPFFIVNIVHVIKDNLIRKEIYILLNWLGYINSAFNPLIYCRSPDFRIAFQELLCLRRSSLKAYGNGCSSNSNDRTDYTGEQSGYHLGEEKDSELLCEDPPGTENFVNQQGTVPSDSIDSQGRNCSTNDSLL

SMILES | EC50 [1] | EC50 [2]
C[C@H](CCc1ccccc1O)N[C@@H]1CCn2c(=O)[nH]c3cccc(c32)[C@H]1O [Example 6f, 7-Hydroxy-6-{[3-(2-hydroxyphenyl)-1-methylpropyl]amino}-4,5,6,7-tetrahydroimidazo[4,5,1-jk][1]benzazepin-2(1H)-one] | 1 nM | 1.9 nM
CC(CCc1ccc(NC(=O)C(F)(F)F)cc1)NC1CCn2c(=O)[nH]c3cccc(c32)C1O (single isomer, unassigned) [Example 59] | 10.4 nM | 12.1 nM
CC(CCc1ccc2c(c1)CCO2)N[C@@H]1CCn2c(=O)[nH]c3cccc(c32)[C@H]1O (single isomer, unassigned) [Example 3a, 6-{[3-(2,3-Dihydro-1-benzofuran-5-yl)-1-methylpropyl]amino}-7-hydroxy-4,5,6,7-tetrahydroimidazo[4,5,1-jk][1]benzazepin-2(1H)-one] | 34.3 nM | 8.1 nM
CC(/C=C/c1ccccc1F)N[C@@H]1CCn2c(=O)[nH]c3cccc(c32)[C@H]1O (single isomer, unassigned) [Example 40a, 6-{[3-(2-Fluorophenyl)-1-methylprop-2-en-1-yl]amino}-7-hydroxy-4,5,6,7-tetrahydroimidazo[4,5,1-jk][1]benzazepin-2(1H)-one] | 242 nM | 65.1 nM
CC(CCc1cc(C(F)(F)F)ccc1O)N[C@@H]1CCn2c(=O)[nH]c3cccc(c32)[C@H]1O (mixture of isomers) [Example 31, 7-Hydroxy-6-({3-[2-hydroxy-5-(trifluoromethyl)phenyl]-1-methylpropyl}amino)-4,5,6,7-tetrahydroimidazo[4,5,1-jk][1]benzazepin-2(1H)-one] | 27.2 nM | 8.1 nM

Results, then the compound that gave them:

EC50 [1] | EC50 [2] | SMILES
8.6 nM | 2.9 nM | CC(CCc1c(F)cccc1Cl)N[C@@H]1CCn2c(=O)[nH]c3cccc(c32)[C@H]1O (mixture of isomers) [Example 32, 6-{[3-(2-Chloro-6-fluorophenyl)-1-methylpropyl]amino}-7-hydroxy-4,5,6,7-tetrahydroimidazo[4,5,1-jk][1]benzazepin-2(1H)-one]
3.3 nM | 3 nM | Cc1cccc(CCC(C)N[C@@H]2CCn3c(=O)[nH]c4cccc(c43)[C@H]2O)c1O (mixture of isomers) [Example 17, 7-Hydroxy-6-{[3-(2-hydroxy-3-methylphenyl)-1-methylpropyl]amino}-4,5,6,7-tetrahydroimidazo[4,5,1-jk][1]benzazepin-2(1H)-one]
0.7 nM | 1.1 nM | COc1cccc(CCC(C)N[C@@H]2CCn3c(=O)[nH]c4cccc(c43)[C@H]2O)c1O (single isomer, unassigned) [Example 8b, 7-hydroxy-6-{[3-(2-hydroxy-3-methoxyphenyl)-1-methylpropyl]amino}-4,5,6,7-tetrahydroimidazo[4,5,1-jk][1]benzazepin-2(1H)-one]
